Source: article PMC8408562, “Spatially restricted substrate-binding site of cortisol-synthesizing CYP11B1 limits multiple hydroxylations and hinders aldosterone synthesis” (Current Research in Structural Biology, 2021)
Residue numbers refer to the chain shown, from its start. “And” between values parts separate entries of the source, which are not always exact repeats. Equal values may be shown once. Read-outs that look alike come from different tables or passages of the source. Each block holds one molecule with its values, some of them ahead of it.

Columns and labels:
[1] = target: T1, human CYP11B1 wild type (Homo sapiens, UniProt P15538); assay: Steady-state kinetics in reconstituted system (adrenodoxin reductase, adrenodoxin, NADPH), LC-MS/MS, wild type; type: biochemical
T1 sequence (P15538 28-503 limits assumed): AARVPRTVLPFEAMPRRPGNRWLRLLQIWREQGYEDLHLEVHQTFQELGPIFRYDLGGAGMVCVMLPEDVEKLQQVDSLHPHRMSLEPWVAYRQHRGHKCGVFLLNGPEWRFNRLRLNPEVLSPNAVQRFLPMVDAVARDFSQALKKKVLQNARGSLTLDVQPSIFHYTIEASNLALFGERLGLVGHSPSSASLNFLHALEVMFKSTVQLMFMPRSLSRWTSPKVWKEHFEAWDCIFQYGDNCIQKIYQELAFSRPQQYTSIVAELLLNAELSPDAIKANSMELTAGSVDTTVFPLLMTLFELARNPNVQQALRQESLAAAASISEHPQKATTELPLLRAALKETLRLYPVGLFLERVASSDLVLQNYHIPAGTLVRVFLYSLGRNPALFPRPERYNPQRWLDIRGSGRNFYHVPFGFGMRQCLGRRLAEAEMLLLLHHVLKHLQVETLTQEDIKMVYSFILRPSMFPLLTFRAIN

[2] = target: T2, human CYP11B1 mutant (W49R, L50N, L53N, W56R, L244N, W247N) (Homo sapiens, UniProt P15538, L244N/L50N/L53N/W247N/W49R/W56R); assay: Steady-state kinetics in reconstituted system (adrenodoxin reductase, adrenodoxin, NADPH), LC-MS/MS, mutant; type: biochemical; conditions: for Production of 18-hydroxy cortisol / 18-hydroxy corticosterone (11β,18-dihydroxylation): from DOF and DOC, respectively
T2 sequence (P15538 28-503 W49R/L50N/L53N/W56R/L244N/W247N limits assumed): T1 sequence (P15538 28-503 limits assumed) with W22R, L23N, L26N, W29R, L217N, W220N

[3] = tested on: CYP11B2 Wild type; parameters: method as in ref [1] (a number printed in a supplementary file, which may have a reference list of its own: not looked up in the article's list); conditions: calculated from kcat values with substrate DOC, ref [1]; cited from earlier work
[4] = tested on: CYP11B1 Wild type / CYP11B2 G288S; parameters: method as in ref [2, 3] (a number printed in a supplementary file, which may have a reference list of its own: not looked up in the article's list); conditions: group (ii); steroids produced from DOC, estimated against wild type controls; ref [2, 3]; cited from earlier work
[5] = tested on: CYP11B1 S288G / CYP11B2 R181W/V386A; parameters: method as in ref [2, 3] (a number printed in a supplementary file, which may have a reference list of its own: not looked up in the article's list); conditions: group (iii); steroids produced from DOC, estimated against wild type controls; ref [2, 3]; cited from earlier work
[6] = tested on: CYP11B1 S288G/V320A / CYP11B2 Wild type; parameters: method as in ref [2, 3] (a number printed in a supplementary file, which may have a reference list of its own: not looked up in the article's list); conditions: group (iv); steroids produced from DOC, estimated against wild type controls; ref [2, 3]; cited from earlier work
[7] = target: T2, human CYP11B1 mutant (W49R, L50N, L53N, W56R, L244N, W247N); assay: Spectroscopic titration of ferric enzyme (difference spectra), mutant; conditions: direct titration of ferric form, mean ± SE, n=3
Protocol: (§1) Affinities of the two enzymes for the substrates DOC or DOF and other ligands were determined by titration assays using the ferric forms.
Two forms, a wild type and a mutant, of recombinant human CYP11B1 were expressed as 486-amino acid residue polypeptide (Fig. S2).
Spectroscopic studies were carried out at room temperature using a Jasco UV–visible spectrophotometer V-530. Purified enzymes were diluted to 1.0 ​μM for the wild type and 0.8–1.2 ​μM for the mutant with the buffer consisting of 50 ​mM potassium phosphate (pH 7.4), 150 ​mM NaCl, 20% (v/v) glycerol, and 0.05% (v/v) Tween 20. Substrate DOC (Sigma) at 400 ​μM, sodium dithionite, and CO were added sequentially, and absolute spectra were recorded after each step. […] The data obtained with 5 ​mM Cymal-5 (Anatrace) in place of the substrate were also included in Fig. S4. Dissociation constants for steroids and ligands were determined from spectral changes caused by titration with increasing concentrations of them. Data were analyzed using non-linear regression (Prism 8, GraphPad Software) to calculate Kd values. […] The dissociation constants were calculated from the apparent values by using the Kd values for DOC as the inhibitory constants. […] The steroids and ligands used for spectroscopic analyses were dissolved in dimethyl sulfoxide.

[8] = target: T1, human CYP11B1 wild type; assay: Spectroscopic titration of ferric enzyme (difference spectra), wild type; conditions: for Spectral shift: one column for both wild type and mutant
Protocol: as §1
Spectroscopic studies were carried out at room temperature using a Jasco UV–visible spectrophotometer V-530. Purified enzymes were diluted to 1.0 ​μM for the wild type and 0.8–1.2 ​μM for the mutant with the buffer consisting of 50 ​mM potassium phosphate (pH 7.4), 150 ​mM NaCl, 20% (v/v) glycerol, and 0.05% (v/v) Tween 20. […] Dissociation constants for steroids and ligands were determined from spectral changes caused by titration with increasing concentrations of them. Data were analyzed using non-linear regression (Prism 8, GraphPad Software) to calculate Kd values. […] The dissociation constants were calculated from the apparent values by using the Kd values for DOC as the inhibitory constants. […] The steroids and ligands used for spectroscopic analyses were dissolved in dimethyl sulfoxide.

[9] = CYP11B1 wild type (this study), calculated from kcat values with substrate DOC
[10] = CYP11B1 mutant, calculated from kcat values with substrate DOC

SMILES: C[C@]12CC[C@H]3[C@@H](CCC4=CC(=O)CC[C@@]43C)[C@@H]1CC[C@@H]2C(=O)CO [DOC, 11-deoxycorticosterone]
kcat, 11β,18-diOHase,18-oxidase [1]: 0 s⁻¹
kcat, 11β,18-dihydroxylation [1]: 0.0108 s⁻¹
kcat, 11β-hydroxylation [1]: 2.683 s⁻¹
kcat, 18-hydroxylation [1]: 0.132 s⁻¹
Relative activity (molar product ratio), 11b,18-diOHase [1, 9]: 0.4%
Relative activity (molar product ratio), 11b,18-diOHase,18-oxidase [1, 9]: 0%
Relative activity (molar product ratio), 11b-OHase [1, 9]: 94.9%
Relative activity (molar product ratio), 18-OHase [1, 9]: 4.7%
Production of aldosterone ([1]; Wild type, from DOC): not produced
kcat, 11β,18-diOHase [2]: 0 s⁻¹
kcat, 11β,18-diOHase,18-oxidase [2]: 0 s⁻¹
kcat, 11β-hydroxylation [2]: 2.212 s⁻¹
Relative activity (molar product ratio), 11b,18-diOHase [2, 10]: 0%
Relative activity (molar product ratio), 11b,18-diOHase,18-oxidase [2, 10]: 0%
Relative activity (molar product ratio), 11b-OHase [2, 10]: 95.8%
Relative activity (molar product ratio), 18-OHase [2, 10]: 4.2%
Production of aldosterone ([2]; Mutant, from DOC): not produced
Production of 18-hydroxy cortisol / 18-hydroxy corticosterone (11β,18-dihydroxylation) ([2]; Mutant): did not produce
Relative activity (molar product ratio), 11b,18-diOHase [3]: 2.7%
Relative activity (molar product ratio), 11b,18-diOHase,18-oxidase [3]: 0.5%
Relative activity (molar product ratio), 11b-OHase [3]: 92.6%
Relative activity (molar product ratio), 18-OHase [3]: 4.2%
Activity class, 11b,18-diOHase [4]: + (Percentages 0, >0 and ≤1, >1 and ≤10, and >10 are indicated by (-), (+), (++), and (+++), respectively)
Activity class, 11b,18-diOHase,18-oxidase [4]: - (Percentages 0, >0 and ≤1, >1 and ≤10, and >10 are indicated by (-), (+), (++), and (+++), respectively)
Activity class, 11b-OHase [4]: +++ (Percentages 0, >0 and ≤1, >1 and ≤10, and >10 are indicated by (-), (+), (++), and (+++), respectively)
Activity class, 11b,18-diOHase [5]: ++ (Percentages 0, >0 and ≤1, >1 and ≤10, and >10 are indicated by (-), (+), (++), and (+++), respectively)
Activity class, 11b,18-diOHase,18-oxidase [5]: - (Percentages 0, >0 and ≤1, >1 and ≤10, and >10 are indicated by (-), (+), (++), and (+++), respectively)
Activity class, 11b-OHase [5]: +++ (Percentages 0, >0 and ≤1, >1 and ≤10, and >10 are indicated by (-), (+), (++), and (+++), respectively)
Activity class, 11b,18-diOHase [6]: ++ (Percentages 0, >0 and ≤1, >1 and ≤10, and >10 are indicated by (-), (+), (++), and (+++), respectively)
Activity class, 11b,18-diOHase,18-oxidase [6]: + (Percentages 0, >0 and ≤1, >1 and ≤10, and >10 are indicated by (-), (+), (++), and (+++), respectively)
Activity class, 11b-OHase [6]: +++ (Percentages 0, >0 and ≤1, >1 and ≤10, and >10 are indicated by (-), (+), (++), and (+++), respectively)
Kd [7]: 3.8 µM and 3.81 µM
Kd [8]: 15.1 µM
Spectral shift [8]: Type I

kcat, 11β-hydroxylation ([1]; Wild type, DOF to cortisol, DOC to corticosterone): 2.157 s⁻¹
kcat, 11β-hydroxylation ([2]; Mutant, DOF to cortisol, DOC to corticosterone): 1.51 s⁻¹
Production of 18-hydroxy cortisol / 18-hydroxy corticosterone (11β,18-dihydroxylation) ([2]; Mutant): did not produce
kcat, 11β,18-diOHase ([2]; Mutant, product 18OH-F (from DOF) or 18OH-B (from DOC)): 0 s⁻¹
Kd [7]: 3.3 µM and 3.31 µM
Kd [8]: 21.2 µM
Spectral shift [8]: Type I
SMILES: C[C@]12CCC(=O)C=C1CC[C@@H]1[C@@H]2CC[C@@]2(C)[C@H]1CC[C@]2(O)C(=O)CO [DOF, 11-deoxycortisol]
